Some results are limits rather than exact numbers.

The results in this text go back to patent US7879876B2, “Sulfonamide derivatives and use thereof for the modulation of metalloproteinases” (Merck Serono SA, priority 2005, dated 2011).

Assay type in all cases: biochemical
Test [1] deals with 92 kDa gelatinase (MMP-9) (Homo sapiens, UniProt P14780). Kind of test: MMP-9 enzyme inhibition assay (coumarin-labeled peptide substrate). The note with it: for IC50: read-out: IC50 MMP9. An outline of the steps: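 Recombinant human MMP-9 (APMA-activated if needed) was assayed in 100 mM Tris-HCl pH 7.6, 100 mM NaCl, 10 mM CaCl2, 0.05% Brij 35, with McaPLGLDpaAR substrate at 37° C. for 2 h. Fluorescence was read at ex 320/em 405 nm over ten 3-fold compound doses (100 μM–5.1 nM) in duplicate. IC50 came from a four-parameter fit.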

The next test has as its target metalloelastase (MMP-12) (Homo sapiens, UniProt P39900). Kind of test: MMP-12 enzyme inhibition assay (coumarin-labelled peptide substrate). To be noted: read-out: IC50 MMP12. An outline of the steps:
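Recombinant human MMP-12 assayed per the MMP-9 protocol: Tris-HCl pH 7.6 buffer with NaCl, CaCl2, Brij 35; McaPLGLDpaAR substrate, compounds 100 μM–5.1 nM in duplicate, 2 h at 37° C. Fluorescence read at 405 nm (320 nm excitation) without stopping; IC50 from four-parameter fit.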

The target in another test is MMP-14 (Homo sapiens, UniProt P50281). Kind of test: MMP-14 enzyme inhibition assay (coumarin-labelled peptide substrate). To be noted: read-out: percentage inhibition MMP14. An outline of the steps: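 Recombinant human enzyme, APMA-activated if necessary, was incubated with McaPLGLDpaAR substrate and compound (10 concentrations in duplicate, 100 μM to 5.1 nM) in Tris-HCl pH 7.6 with NaCl, CaCl2 and Brij 35 for 2 h at 37 °C. Fluorescence was read at 320/405 nm, and IC50 was taken from a four-parameter fit.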

The next test has as its target T1, collagenase (MMP-1) (Homo sapiens, UniProt P03956).
T1 sequence (P03956 100-469): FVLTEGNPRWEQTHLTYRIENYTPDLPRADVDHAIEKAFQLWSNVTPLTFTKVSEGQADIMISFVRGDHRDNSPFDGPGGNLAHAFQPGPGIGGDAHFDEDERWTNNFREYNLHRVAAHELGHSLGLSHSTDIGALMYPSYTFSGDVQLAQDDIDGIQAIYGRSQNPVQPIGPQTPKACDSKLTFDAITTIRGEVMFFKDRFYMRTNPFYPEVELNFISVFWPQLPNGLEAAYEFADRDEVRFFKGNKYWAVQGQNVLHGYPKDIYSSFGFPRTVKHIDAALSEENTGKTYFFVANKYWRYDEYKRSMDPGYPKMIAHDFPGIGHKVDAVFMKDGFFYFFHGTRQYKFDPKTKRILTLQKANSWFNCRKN
Kind of test: MMP-1 enzyme inhibition assay (coumarin-labelled peptide substrate). To be noted: read-out: percentage inhibition MMP1. Put shortly: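 Recombinant human MMP-1, APMA-activated if needed, in Tris-HCl pH 7.6 with NaCl, CaCl2 and 0.05% Brij 35; McaPLGLDpaAR substrate added as 8 μM solution, 2 h at 37 °C. Fluorescence (320/405 nm) read without stopping; IC50 from 10 duplicate concentrations (100 μM–5.1 nM) by four-parameter fit.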

Setting [2] is: read-out: percentage inhibition MMP9.

metalloelastase (MMP-12), sequence (P39900 106-470): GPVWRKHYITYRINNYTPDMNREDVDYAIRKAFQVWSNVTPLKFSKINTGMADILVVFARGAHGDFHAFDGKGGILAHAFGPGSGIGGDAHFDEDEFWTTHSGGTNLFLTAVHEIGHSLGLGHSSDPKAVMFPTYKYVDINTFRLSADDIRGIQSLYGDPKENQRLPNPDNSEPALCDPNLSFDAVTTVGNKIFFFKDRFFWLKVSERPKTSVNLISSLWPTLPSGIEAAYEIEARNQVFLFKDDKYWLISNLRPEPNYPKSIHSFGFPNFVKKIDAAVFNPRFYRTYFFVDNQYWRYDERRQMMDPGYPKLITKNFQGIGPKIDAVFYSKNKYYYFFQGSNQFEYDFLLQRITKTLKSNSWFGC
92 kDa gelatinase (MMP-9), sequence (P14780 107-707 limits assumed): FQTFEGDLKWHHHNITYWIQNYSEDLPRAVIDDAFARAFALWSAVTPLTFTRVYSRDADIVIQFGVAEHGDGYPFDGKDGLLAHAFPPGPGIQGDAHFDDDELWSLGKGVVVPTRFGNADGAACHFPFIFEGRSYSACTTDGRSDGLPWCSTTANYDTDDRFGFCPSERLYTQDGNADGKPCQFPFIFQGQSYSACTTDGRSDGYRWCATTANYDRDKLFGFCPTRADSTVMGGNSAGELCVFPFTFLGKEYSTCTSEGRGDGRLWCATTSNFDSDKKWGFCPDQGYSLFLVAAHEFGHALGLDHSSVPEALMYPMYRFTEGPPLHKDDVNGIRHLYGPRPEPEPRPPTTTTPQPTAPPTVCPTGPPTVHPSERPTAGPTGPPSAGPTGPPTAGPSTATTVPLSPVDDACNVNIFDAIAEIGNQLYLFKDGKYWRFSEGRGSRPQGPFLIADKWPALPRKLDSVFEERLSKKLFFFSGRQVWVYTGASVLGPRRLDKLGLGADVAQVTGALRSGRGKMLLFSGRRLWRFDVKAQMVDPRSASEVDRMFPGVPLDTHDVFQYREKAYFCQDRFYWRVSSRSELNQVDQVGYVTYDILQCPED

A word on the inhibition: it is the change of the read-out against control, counted positive when it falls. Usually IC50 stands for the point on the concentration scale where inhibition reaches its midpoint. Take `O=CN(O)C(CS(=O)(=O)N1CCc2ccc(Br)cc2C1)C1CCCC1` (stereo not shown) [Example 64, N-{2-[(7-bromo-3,4-dihydroisoquinolin-2(1H)-yl)sulfonyl]-1-cyclopentylethyl}-N-hydroxyformamide]: the results for the inhibition at 5 µM (in test [1] (setting [2]); on MMP-14; at collagenase (MMP-1)) were 32%, 71% and 36%, respectively. For the same molecule, the IC50 at metalloelastase (MMP-12) turned out to be 7.9 nM.
`CC(C)(C)CC(CS(=O)(=O)N1CCc2cc(C(F)(F)F)ccc2C1)N(O)C=O` (stereo not shown) [Example 43, N-[3,3-dimethyl-1-({[6-(trifluoromethyl)-3,4-dihydro-isoquinolin-2(1H)-yl]sulfonyl}methyl)butyl]-N-hydroxyformamide]: the inhibition at 0.1 µM was found to be 1% in test [1] (@ 0.1 μM, read-out: percentage inhibition MMP9) and 14% at MMP-14. For the same molecule, the results for the inhibition at 5 µM (in test [1] (setting [2]); at MMP-14; at collagenase (MMP-1)) were 68%, 89% and 53%, respectively. Besides, the IC50 at metalloelastase (MMP-12) stood at 3.2 nM.
Consider `CCCOc1ccc2c(c1)CN(S(=O)(=O)CC(CC(C)(C)C)N(O)C=O)CC2` (stereo not shown) [Example 40, N-(3,3-dimethyl-1-{[(7-propoxy-3,4-dihydroisoquinolin-2(1H)-yl)sulfonyl]methyl}butyl)-N-hydroxyformamide], for which the inhibition at 5 µM in test [1] (setting [2]) was 11%; at MMP-14, 54%; on collagenase (MMP-1), 2%. Further, on metalloelastase (MMP-12), the IC50 turned out to be 15 nM.
For the molecule `O=CN(O)C(CS(=O)(=O)N1CCc2ccccc2C1)c1cncnc1` (stereo not shown) [Example 9, N-[2-(3,4-dihydroisoquinolin-2(1H)-ylsulfonyl)-1-pyrimidin-5-ylethyl]-N-hydroxyformamide], the 50% inhibitory concentration (IC50) is above 5000 nM in test [1] and 49 nM on metalloelastase (MMP-12). The inhibition at 5 µM came out at 61% on MMP-14 and 29% on collagenase (MMP-1).
For the molecule `CC(C)(C)CC(CS(=O)(=O)N1Cc2ccc(F)cc2C1)N(O)C=O` (stereo not shown) [Example 26, N-(1-{[(5-fluoro-1,3-dihydro-2H-isoindol-2-yl)sulfonyl]methyl}-3,3-dimethylbutyl)-N-hydroxyformamide], the inhibition at 5 µM in test [1] (setting [2]) amounted to 62%; at MMP-14 it was 82%; on collagenase (MMP-1), 92%. In addition, the IC50 at metalloelastase (MMP-12) is 10 nM. For the same molecule, the inhibition at 0.1 µM on collagenase (MMP-1) was determined as 17%.
Regarding `CCC(CC)C(CS(=O)(=O)N1CCc2cc(C(F)(F)F)ccc2C1)N(O)C=O` (stereo not shown) [Example 37, N-[2-ethyl-1-({[6-(trifluoromethyl)-3,4-dihydroisoquinolin-2(1H)-yl]sulfonyl}methyl)butyl]-N-hydroxyformamide], the values for the inhibition at 5 µM (in test [1] (setting [2]); on MMP-14; at collagenase (MMP-1)) were 58%, 83% and 36%, respectively. In addition, on metalloelastase (MMP-12), the IC50 came out at 4.2 nM. Moreover, the inhibition at 0.1 µM at MMP-14 was found to be 8%.
Take `CC(C)(Cc1ccccc1)C(CS(=O)(=O)N1CCc2cc(C(F)(F)F)ccc2C1)N(O)C=O` (stereo not shown) [Example 31, N-[2,2-dimethyl-3-phenyl-1-({[6-(trifluoromethyl)-3,4-dihydroisoquinolin-2(1H)-yl]sulfonyl}methyl)propyl]-N-hydroxyformamide]: the inhibition at 5 µM was found to be 3% in test [1] (setting [2]), 19% on MMP-14 and 10% at collagenase (MMP-1). Further, the IC50 at metalloelastase (MMP-12) amounted to 40 nM.
On to `CC(C)CC(CS(=O)(=O)N1CCc2ccc(Br)cc2C1)N(O)C=O` (stereo not shown) [Example 55, N-(1-{[(7-bromo-3,4-dihydroisoquinolin-2(1H)-yl)-sulfonyl]methyl}-3-methylbutyl)-N-hydroxyformamide], for which the inhibition at 5 µM in test [1] (setting [2]) came to 39%; on MMP-14, 86%; on collagenase (MMP-1), 69%. On metalloelastase (MMP-12), the IC50 stood at 6 nM. Besides, the inhibition at 0.1 µM on MMP-14 came out at 19%; at collagenase (MMP-1), 7%.
For the molecule `CC(C)C(CS(=O)(=O)N1CCc2cc(Cl)c(Cl)cc2C1)N(O)C=O` (stereo not shown) [Example 39, N-(1-{[(6,7-dichloro-3,4-dihydroisoquinolin-2(1H)-yl)-sulfonyl]methyl}-2-methylpropyl)-N-hydroxyformamide], the inhibition at 5 µM stood at 47% in test [1] (setting [2]), 87% on MMP-14 and 25% at collagenase (MMP-1). In addition, the IC50 on metalloelastase (MMP-12) worked out at 4.1 nM. Moreover, at MMP-14, the inhibition at 0.1 µM was 10%.
Consider `O=CN(O)C(CS(=O)(=O)N1CCc2ccc(-c3ccccc3)cc2C1)C1CCCC1` (stereo not shown) [Example 69, N-{1-cyclopentyl-2-[(7-phenyl-3,4-dihydroisoquinolin-2(1H)-yl)sulfonyl]ethyl}-N-hydroxyformamide], for which the inhibition at 5 µM was found to be 26% in test [1] (setting [2]), 63% at MMP-14 and 4% at collagenase (MMP-1). Also, the IC50 at metalloelastase (MMP-12) is 18 nM.
As to `COc1ccc(C(CS(=O)(=O)N2CCc3ccccc3C2)N(O)C=O)cn1` (stereo not shown) [Example 13, N-[2-(3,4-dihydroisoquinolin-2(1H)-ylsulfonyl)-1-(6-methoxypyridin-3-yl)ethyl]-N-hydroxyformamide], the half-inhibitory concentration (IC50) is above 5000 nM in test [1] and 10 nM on metalloelastase (MMP-12). The inhibition at 5 µM came out at 64% on MMP-14 and 16% on collagenase (MMP-1).
With `O=CN(O)C(CO)CS(=O)(=O)N1CCc2cc(Cl)c(Cl)cc2C1` (stereo not shown) [Example 49, N-[2-[(6,7-dichloro-3,4-dihydroisoquinolin-2(1H)-yl)-sulfonyl]-1-(hydroxymethyl)ethyl]-N-hydroxyformamide], the inhibition at 5 µM in test [1] (setting [2]) was found to be 43%; at MMP-14, 86%; on collagenase (MMP-1) it was 29%. In addition, the half-inhibitory concentration (IC50) on metalloelastase (MMP-12) was 5.5 nM. The inhibition at 0.1 µM at MMP-14 turned out to be 14%.
Consider `O=CN(O)C(CS(=O)(=O)N1CCc2ccc(-c3ccc(F)cc3)cc2C1)C1CC1` (stereo not shown) [Example 75, N-(1-cyclopropyl-2-{[7-(4-fluorophenyl)-3,4-dihydro-isoquinolin-2(1H)-yl]sulfonyl}ethyl)-N-hydroxyformamide], for which the figures for the inhibition at 5 µM (in test [1] (setting [2]); on MMP-14; on collagenase (MMP-1)) were 71%, 92% and 0%, respectively. In addition, on metalloelastase (MMP-12), the IC50 is 6 nM. Also, on MMP-14, the inhibition at 0.1 µM is 11%.
Take `CC(C)c1ccc2c(c1)CCN(S(=O)(=O)CC([C@H]1COC(C)(C)O1)N(O)C=O)C2` (stereo partly drawn) [Example 18, N-{1-[(4S)-2,2-dimethyl-1,3-dioxolan-4-yl]-2-[(6-isopropyl-3,4-dihydroisoquinolin-2(1H)-yl)sulfonyl]ethyl}-N-hydroxyformamide]: the IC50 in test [1] was above 5000 nM; on metalloelastase (MMP-12), 1.4 nM. In addition, the inhibition at 0.1 µM on MMP-14 was found to be 13%. The inhibition at 5 µM amounted to 95% on MMP-14 and 9% at collagenase (MMP-1).
For the molecule `CC(C)(C)CC(CS(=O)(=O)N1CCc2ccc(Cl)cc2C1)N(O)C=O` (stereo not shown) [Example 41, N-(1-{[(7-chloro-3,4-dihydroisoquinolin-2(1H)-yl)sulfonyl]-methyl}-3,3-dimethylbutyl)-N-hydroxyformamide], the inhibition at 5 µM in test [1] (setting [2]) turned out to be 14%; on MMP-14, 74%; at collagenase (MMP-1), 54%. Further, the IC50 at metalloelastase (MMP-12) was found to be 11 nM. Also, the inhibition at 0.1 µM at MMP-14 was found to be 5%.
Take `O=CN(O)C(CS(=O)(=O)N1CCc2cc(C(F)(F)F)ccc2C1)C1CC1` (stereo not shown) [Example 74, N-(1-cyclopropyl-2-{[6-(trifluoromethyl)-3,4-dihydro-isoquinolin-2(1H)-yl]sulfonyl}ethyl)-N-hydroxyformamide]: the inhibition at 5 µM was determined as 32% in test [1] (setting [2]), 76% on MMP-14 and 44% at collagenase (MMP-1). Besides, the half-maximal inhibitory concentration (IC50) at metalloelastase (MMP-12) is 5.2 nM.
In the case of `O=CN(O)[C@H](CS(=O)(=O)N1CCc2ccc(C(F)(F)F)cc2C1)[C@H]1CCCO1` [Example 27, N-hydroxy-N-((1S)-1-[(2R)-tetrahydrofuran-2-yl]-2-{[7-(trifluoromethyl)-3,4-dihydroisoquinolin-2(1H)-yl]sulfonyl}ethyl)formamide], the inhibition at 5 µM worked out at 13% in test [1] (setting [2]), 41% at MMP-14 and 30% on collagenase (MMP-1). For the same molecule, at metalloelastase (MMP-12), the IC50 stood at 6.9 nM.
